Laboratory results from patent US5834461A, “Tricyclic benzazepine vasopressin antagonists” (American Cyanamid Company, priority 1997, dated 1998).

How the values were obtained:
[1] = target: vasopressin V1 receptor (rat liver plasma membranes) (Rattus norvegicus, UniProt P30560); assay: Binding Assay to Rat Hepatic V1 Receptors; settings: for IC50: rat hepatic V1; for inhibition at 50 µM: 2 h, rat hepatic, read-out: V1, % at concentration in brackets
Experimental: Rat liver plasma membranes expressing the vasopressin V1 receptor subtypes are isolated by sucrose density gradient according to the method described by Lesko et al., (1973). These membranes are quickly suspended in 50.0 mM Tris.HCl buffer, pH 7.4, containing 0.2% bovine serum albumin (BSA) and 0.1 mM phenylmethylsulfonylfluoride (PMSF) and kept frozen at -70° C. until used in subsequent binding experiments. For binding experiments, the following is added to the wells of a ninety-six well format microtiter plate: 100 μl of 100.0 mM Tris.HCl buffer containing 10.0 mM MgCl2, 0.2% heat inactivated BSA and a mixture of protease inhibitors: leupeptin, 1.0 mg %; aprotinin, 1.0 mg %; 1,10-phenanthroline,2.0 mg %; trypsin inhibitor, 10.0 mg % and 0.1 mM PMSF, 20.0 μl of [phenylalanyl-3,4,5,-^3 H] vasopressin (S.A. 45.1 Ci/mmole) at 0.8 nM, and the reaction initiated by the addition of 80 μl of tissue membranes containing 20 μg of tissue protein. The plates are kept undisturbed on the bench top at room temperature for 120 min. to reach equilibrium. Non-specific samples are assayed in the presence of 0.1 μM of the unlabeled antagonist phenylalanylvasopressin, added in 20.0 μl volume.
For test compounds, these are solubilized in 50% dimethylsulfoxide (DMSO) and added in 20.0 μl volume to a final incubation volume of 200 μl. Upon completion of binding, the content of each well is filtered off, using a Brandel® cell Harvester (Gaithersburg, Md.). The radioactivity trapped on the filter disk by the ligand-receptor complex is assessed by liquid scintillation counting in a Packard LS Counter, with an efficiency of 65% for tritium.

[2] = target: T1, rat kidney medullary V2 receptors (Rattus norvegicus, UniProt Q00788); assay: Binding Assay to Rat Kidney Medullary V2 Receptors; settings: for IC50: rat kidney medullary V2; for inhibition at 50 µM: rat kidney, read-out: V2, % at concentration in brackets
T1 construct: Medullary tissues from rat kidneys are dissected out; from tissue; host or cells: rat kidney medulla membranes
T1 sequence (Q00788 whole entry): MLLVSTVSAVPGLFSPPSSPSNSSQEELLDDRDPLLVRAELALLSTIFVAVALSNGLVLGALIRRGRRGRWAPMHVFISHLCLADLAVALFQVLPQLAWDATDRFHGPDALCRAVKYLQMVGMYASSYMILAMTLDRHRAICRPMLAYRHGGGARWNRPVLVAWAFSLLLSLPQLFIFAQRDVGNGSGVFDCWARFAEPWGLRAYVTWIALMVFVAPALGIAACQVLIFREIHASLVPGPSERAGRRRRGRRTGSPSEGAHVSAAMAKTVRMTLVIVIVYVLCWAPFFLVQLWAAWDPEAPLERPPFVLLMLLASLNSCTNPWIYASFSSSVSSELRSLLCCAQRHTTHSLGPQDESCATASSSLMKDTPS
Experimental: Medullary tissues from rat kidneys are dissected out, cut into small pieces and soaked in a […] sodium chloride solution containing 1.0 mM EDTA with many changes of the liquid phase, until the solution is clear of blood. The tissue is homogenized in a 0.25M sucrose solution containing 1.0 mM EDTA and 0.1 mM PMSF using a Potter-Elvehjem homogenizer with a teflon pestle. The homogenate is filtered through several layers (4 layers) of cheese cloth. The filtrate is rehomogenized using a dounce homogenizer, with a tight fitting pestle. The final homogenate is centrifuged at 1500×g for 15 min. The nuclear pellet is discarded and the supernatant fluid recentrifuged at 40,000×g for 30 min. The resulting pellet formed contains a dark inner part with the exterior, slightly pink. The pink outer part is suspended in a small amount of 50.0 mM Tris.HCl buffer, pH 7.4. The protein content is determined by the Lowry's method (Lowry et al., J. Biol. Chem., 1953). The membrane suspension is stored at -70° C., in 50.0 mM Tris.HCl, containing 0.2% inactivated BSA and 0.1 mM PMSF in aliquots of 1.0 ml containing 10.0 mg protein per ml of suspension until use in subsequent binding experiments.
For binding experiments, the following is added in μl volume to wells of a 96 well format of a microtiter plate: 100.0 μl of 100.0 mM Tris.HCl buffer containing 0.2% heat inactivated BSA, 10.0 mM MgCl2 and a mixture of protease inhibitors: leupeptin, 1.0 mg %; aprotinin, 1.0 mg %; 1,10-phenanthroline, 2.0 mg %; trypsin inhibitor, 10.0 mg % and 0.1 mM PMSF, 20.0 μl of [^3 H] Arginine^8, vasopressin (S.A. 75.0 Ci/mmole) at 0.8 nM and the reaction initiated by the addition of 80.0 μl of tissue membranes (200.0 μg tissue protein). The plates are left undisturbed on the bench top for 120 min to reach equilibrium. Non-specific binding is assessed in the presence of 1.0 μM of unlabeled ligand, added in 20 μl volume. For test compounds, these are solubilized in 50% dimethylsulfoxide (DMSO) and added in 20.0 μl volume to a final incubation volume of 200 μl. Upon completion of binding, the content of each well is filtered off, using a Brandel® cell Harvester (Gaithersburg, Md.). The radioactivity trapped on the filter disk by the ligand-receptor complex is assessed by liquid scintillation counting in a Packard LS Counter, with an efficiency of 65% for tritium.

Chain of vasopressin V1 receptor (rat liver plasma membranes) (P30560 whole entry): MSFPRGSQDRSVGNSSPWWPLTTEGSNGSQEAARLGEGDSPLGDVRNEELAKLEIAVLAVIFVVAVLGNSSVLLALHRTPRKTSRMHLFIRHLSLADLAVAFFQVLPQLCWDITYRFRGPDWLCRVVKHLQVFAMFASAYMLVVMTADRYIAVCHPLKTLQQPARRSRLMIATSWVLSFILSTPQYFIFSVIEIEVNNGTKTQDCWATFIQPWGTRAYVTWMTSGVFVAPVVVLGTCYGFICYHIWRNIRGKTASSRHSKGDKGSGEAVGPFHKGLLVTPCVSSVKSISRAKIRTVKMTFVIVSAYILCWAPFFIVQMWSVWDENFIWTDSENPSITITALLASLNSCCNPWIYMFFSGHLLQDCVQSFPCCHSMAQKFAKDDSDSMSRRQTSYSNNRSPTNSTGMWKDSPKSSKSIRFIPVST

Structure (SMILES) | IC50 [1] | IC50 [2] | inhibition at 50 µM [1] | inhibition at 50 µM [2]
Cc1ccc(C)c(C(=O)Nc2ccc(C(=O)N3Cc4ccccc4Cc4ccccc43)cc2)c1 [Example 12, N-[4-[(6,11-Dihydro-5H-dibenz[b,e]azepin-5-yl)carbonyl]phenyl]-2,5-dimethylbenzamide] | 390 nM | 180 nM |  | 
O=C(Nc1ccc(C(=O)N2Cc3ccccc3-c3ccccc32)cc1)c1c(Cl)cccc1Cl [Example 7] | 630 nM | 77 nM |  | 
Cc1ccccc1C(=O)Nc1ccc(C(=O)N2Cc3ccccc3CCc3ccccc32)cc1 [Example 6, N-[4-[(11,12-Dihydrodibenz[b,f]azocin-5-(6H)-yl)-carbonyl]phenyl]-2-methylbenzamide] |  |  | 60% | 80%
O=C(Nc1ccc(C(=O)N2Cc3ccccc3Cc3ccccc32)cc1)c1cccnc1 [Example 17, N-[4-[(6,11-Dihydro-5H-dibenz[b,e]azepin-5-yl)-carbonyl]phenyl]-3-pyridinecarboxamide] |  |  | 65% | 52%
O=C(Nc1ccc(C(=O)N2Cc3ccccc3Cc3ccccc32)cc1)c1ccccc1 [Example 24, N-[4-[(6,11-Dihydro-5H-dibenz[b,e]azepin-5-yl)carbonyl]phenyl]benzamide] | 170 nM | 410 nM |  | 
O=C(Nc1ccc(C(=O)N2Cc3ccccc3Cc3ccccc32)cc1)c1ccccc1C(F)(F)F [Example 166, N-[4-[(6,11-Dihydro-5H-dibenz(b,e]azepin-5-yl)carbonyl]phenyl]-2-trifluoromethylbenzamide] | 83 nM | 245 nM |  | 
O=C(Nc1ccc(C(=O)N2Cc3ccccc3Cc3ccccc32)cc1)c1ccccc1OC(F)(F)F [Example 25, N-[4-[(6,11-Dihydro-5H-dibenz[b,e]azepin-5-yl)carbonyl]phenyl]-2-(trifluoromethoxy)benzamide] | 52 nM | 560 nM |  | 
O=C(Nc1ccc(C(=O)N2Cc3ccccc3-c3ccccc32)cc1)c1ccc(Cl)c(Cl)c1 [Example 8, 3.4-Dichloro-N-[4-[(5(6H)-phenanthridinyl)carbonyl]phenyl]benzamide] | 2800 nM | 1500 nM |  | 
Cc1ccsc1C(=O)Nc1ccc(C(=O)N2Cc3ccccc3Cc3ccccc32)cc1 [Example 18, N-[4-[(6,11-Dihydro-5H-dibenz[b,e]azepin-5-yl)carbonyl]phenyl]-3-methyl-2-thiophenecarboxamide] | 84 nM | 520 nM |  | 
Cc1ccccc1C(=O)Nc1ccc(C(=O)N2Cc3cc(S(=O)(=O)N(C)C)ccc3Oc3ccccc32)cc1 [Example 23, N-[4-[[2-[(Dimethylamino)sulfonyl]dibenz[b,f][1,4]oxazepin-10(11H)-yl]carbonyl]phenyl]-2-methylbenzamide] |  |  | 19% | 47%
O=C(Nc1ccc(C(=O)N2Cc3ccccc3Cc3ccccc32)cc1)c1cccc(C(F)(F)F)c1 [Example 19, N-[4-[(6,11-Dihydro-5H-dibenz[b,e]azepine-5-yl)carbonyl]phenyl]-3-(trifluoromethyl)benzamide] | 1300 nM | 1200 nM |  | 
Cc1ccccc1C(=O)Nc1ccc(C(=O)N2Cc3cc(Cl)ccc3Oc3ccccc32)cc1 [Example 4] | 1500 nM | 1700 nM |  | 
O=C(Nc1ccc(C(=O)N2Cc3ccccc3Cc3ccccc32)cc1)c1cc(Cl)ccc1Cl [Example 9, N-[4-[(6,11-Dihydro-5H-dibenz[b,e]azepin-5-yl)carbonyl]phenyl]-2,5-dichlorobenzamide] | 1100 nM | 280 nM |  | 
Cc1ccsc1C(=O)Nc1ccc(C(=O)N2Cc3ccccc3-c3ccccc32)cc1 [Example 3, 3-Methyl-N-[4-[(5(6H)-phenanthridinyl)carbonyl]-phenyl]-2-thiophenecarboxamide] | 170 nM | 420 nM |  | 
Cc1occc1C(=O)Nc1ccc(C(=O)N2Cc3ccccc3Cc3ccccc32)cc1 [Example 119] | 39 nM | 1100 nM |  | 
